{
  "source": "paper PMC7004521",
  "about": "(Cancer Science, 2019)",
  "system": "p‐MET",
  "experiment": "p‐MET immunohistochemistry in paired tumor biopsies",
  "assay_type": "in vivo, human",
  "conditions": "450 mg bid capsule, cycle 1 day 15, one advanced CRC patient",
  "data": [
    {"smiles": "CNC(=O)c1ccc(-c2cnc3ncc(Cc4ccc5ncccc5c4)n3n2)cc1F", "note": "[capmatinib]", "values": [
      {"measurement": "p‐MET H‐score (IHC) on treatment", "value": 2}
    ]}
  ]
}
